This is an account of results in patent publication US20080293699A1, “Inhibitors of thapsigargin-induced cell death” (priority 2007, published 2008).

“Also recorded” adds a separate entry of the source.

What all share (assay type): cell-based, rat
For assay [1], the system named is CSM14.1 cells. As to the kind of experiment: Primary HTS assay: ATP content (ATPlite) of undifferentiated CSM14.1 cells challenged with thapsigargin. Conditions: 100 μM Salubrinal, 15 μM TG, undifferentiated CSM14.1, ATP. Put shortly: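 Undifferentiated CSM14.1 cells, 3,000/well, cultured overnight at 32 °C, then test compounds at ~15 μg/mL final (1% DMSO) added. Thapsigargin ~15 μM final given after 2 h; ATPlite luminescence read after 24 h as survival surrogate, with 100 μM Salubrinal as maximum and DMSO as minimum.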

The subject of assay [2] is differentiated CSM14.1 cells. As to the kind of experiment: ATP content assay, thapsigargin-treated differentiated CSM14.1 cells. Conditions: compound 25 μM with 10 μM thapsigargin, Salubrinal 100 μM. The procedure:
Of the 26 compounds shown in Table 9, 16 were subsequently confirmed to protect differentiated CSM14.1 cells from TG-induced cell death. For these assays, CSM14.1 cells were differentiated by culture in 2% FBS for 7 days at non-permissive temperature of 39° C. […] CSM14.1 cells were plated at 1,500 cells per well in 96-well plates, and cultured overnight at 32° C. (permissive temperature; FIG. 14, left) or at 39° C. (non-permissive temperature, FIG. 14, right) for 7 days. […] ATP content was measured, and data were expressed as a percentage of control cells treated only with 1% DMSO (mean ±SD; n=3). Two percent FBS was used during differentiation, but all assays were performed in 10% FBS.
For PC12, cells were stimulated with 20 ng/ml NGF for five days; for C17.2, cells were stimulated with serum reduction, and 1% N2 incubation for three days; for CSM14.1, cells were cultured at 39° C. for 5-7 days.
CSM14.1 cells were plated at 1,500 cells per well in 96-well plates and cultured at 39° C. (non-permissive temperature) for 7 days. […] ATP content was measured and data were expressed as a percentage of control cells treated with only 1% DMSO.

Assay [3] deals with CSM14.1 cells. As to the kind of experiment: Tunicamycin-induced cell death of CSM14.1 cells. Conditions: 100 μm salubrinal; stated in the description of FIG. 13 (tunicamycin, annexin V flow cytometry). The procedure: CSM 14.1 cells were plated at a density of 3×10^3 cells/well in 96-well plates and incubated overnight. Cells were pre-incubated with 25 μM of each compound or 100 μM salubrinal for two hours, followed by […] tunicamycin treatment. 72 hours later, cell death rates were measured by flow cytometry analysis. Annexin V-negative population was considered as survivors. In FIG. 13, the white column represents 0.5% DMSO control showing 24% of survival, and the gray column 100 μM salubrinal. Black columns are data from each compound (25 μM) (compound numbers refer to the compounds in Table 9).
For the experiments shown in FIG. 18, undifferentiated CSM 14.1 cells were plated at 3,000 cells per well in 96-well plates (for the ATP assay) or at 1×10^4 cells per well in 24-well plates (for flow cytometry). The next day, cells were treated with DMSO (0.5%) or hit compounds 25 μM of a compound with 0.5% DMSO final concentration) for two hours, followed by treatment with various cell death-inducing reagents, including 15 μM Thapsigargin (TG) for 24 hrs, 10 μg/mL tunicamycin (TU) for 72 hrs, 2.5 μM staurosporine (STS) for 24 hrs, 50 μM VP16 for 48 hrs, or 30 ng/mL TNF plus 10 μg/mL cyclohexamide (CHX) for 24 hrs. Cellular ATP content was measured for staurosporine samples and TNF/CHX samples, normalizing data relative to cells treated with DMSO alone (the control) and presenting as a percentage of control. For measuring cell death resulting from treatment with tunicamycin and VP16, flow cytometry was used. All assays were performed in triplicate (mean ±SD).

A further assay deals with CSM 14.1 cells. As to the kind of experiment: MTS assay of thapsigargin-induced death of CSM 14.1 cells. The following applies: salubrinal two hours before 7.5 mM thapsigargin, 18 hours. The procedure: CSM 14.1 cells were plated at a density of 3×10^3 cells per well in 96-well plates and incubated overnight. The indicated concentration of salubrinal was pre incubated with cells for two hours, followed by […] thapsigargin treatment. 18 hours later, cell death rates were measured by the MTS assay. For the MTS assay, the CellTiter 960 Aqueous Non-radioactive Cell Proliferation Assay kit (Promega) was used. The reaction-ready solution was made according to the manufacturer's protocol, and each treated well of the 96-well plate was incubated with 20 μl of the reaction-ready solution. The plates were incubated humidified cell incubator at 37° C. with 5% CO2 for two hours, and the absorbance of each well was read by an ELISA plate reader at 490 nm wavelength. To determine the background level of absorbance, the same volume of culture media (DMEM without cells) was incubated with MTS solution. The background value was subtracted from the value of each well. Background values from the control treatment (no TG, no Sal) wells were set as 100% survival, and the experimental wells' values were evaluated as the percentage of the control value.

Consider `O=C(/C=C/c1ccccc1)NC(NC(=S)Nc1cccc2cccnc12)C(Cl)(Cl)Cl` (centres unmarked) [Salubrinal, reference compound], for which the results for the “Protection against TG-induced cell death by Salubrinal” value with CSM14.1 cells [1] and in the assay on CSM14.1 cells [1] (listed as Sal) were “significantly protected; also recorded: protects” and “protects”, respectively. Besides, the “Protection of differentiated CSM14.1 cells from thapsigargin-induced death” value in assay [2] is recorded as “protects”. Further, in the assay on CSM14.1 cells [3], the “Inhibition of tunicamycin-induced cell death” value is 75%. Besides, the “Inhibition of thapsigargin-induced cell death, MTS assay” value in the assay on CSM 14.1 cells was “less efficiently than our hit compounds”.
